Results as given in PMC7126891 (Bioorganic & Medicinal Chemistry, 2013).
Read-outs that look alike come from different tables or passages of the source.

How the values were obtained:
[1] = molecular target: T1, SARS-CoV 3CL^pro (Severe acute respiratory syndrome coronavirus, UniProt P0C6X7)
[2] = molecular target: T1, SARS-CoV 3CL^pro; format: biochemical
[3] = molecular target: T1, SARS-CoV 3CL^pro; experiment: biochemical; format: binding

For `Oc1cc(O)cc(Oc2c(O)cc(O)c3c2Oc2c(O)cc(O)cc2O3)c1` [Compound 3, eckol], the “SI (CC50/IC50)” value [1] was <1, the “Cell-free trans-cleavage inhibition type” value [2] was “Competitive (8.2 ± 0.9)” and the “fold higher activity than triphloretol A (2)” value [2] was 20 fold.

With `Oc1cc(O)c2oc3cc(O)c4oc5cc(O)cc(O)c5oc4c3oc2c1` [Compound 4, dioxinodehydroeckol] the “SI (CC50/IC50)” value [1] was >1.4.

For `Oc1cc(O)cc(Oc2c(Oc3c(O)cc(O)cc3O)cc(O)c3c2Oc2c(O)cc(O)cc2O3)c1` [Compound 5, 2-phloroeckol], the “SI (CC50/IC50)” value [1] was >1.8, the “Cell-free trans-cleavage inhibition type” value [2] was “Competitive (24.0 ± 1.5)” and the “fold increase of inhibitory activity versus 7-phloroeckol (6)” value [2] was ~3 fold.

`Oc1cc(O)cc(Oc2c(O)cc(O)c3c2Oc2c(O)cc(Oc4c(O)cc(O)cc4O)cc2O3)c1` [Compound 6, 7-phloroeckol] was tested, and the “SI (CC50/IC50)” value [1] was >1.8 and the “Cell-free trans-cleavage inhibition type” value [2] was “Competitive (19.3 ± 1.4)”.

`Oc1cc(O)c(Oc2cc(O)cc(O)c2Oc2cc(O)cc(O)c2-c2c(O)cc(O)cc2O)c(O)c1` [Compound 7, fucodiphloroethol G] was tested, and the “SI (CC50/IC50)” value ([1]; African green monkey) was >1.1 and the “Cell-free trans-cleavage inhibition type” value [2] was “Competitive (63.5 ± 7.1)”.

With `Oc1cc(O)cc(Oc2c(O)cc(O)c3c2Oc2c(O)cc(Oc4c(O)cc(Oc5c(O)cc(O)c6c5Oc5c(O)cc(O)cc5O6)cc4O)cc2O3)c1` [Compound 8, dieckol] the “SI (CC50/IC50)” value [1] was >2.9, the kon ([3]; read-out: association rate constant kon) was 7.35e+07 M⁻¹ s⁻¹ and the koff ([3]; read-out: dissociation rate constant koff) was 0.000843 s⁻¹. The “Cell-free trans-cleavage inhibition type” value [2] was “Competitive (2.4 ± 0.2)”.

For `Oc1cc(O)cc(Oc2c(O)cc(O)c3c2Oc2c(O)cc4oc5c(Oc6cc(O)cc(O)c6)c(O)cc(O)c5c4c2O3)c1` [Compound 9, phlorofucofuroeckol A], the “SI (CC50/IC50)” value [1] was >1.1 and the “Cell-free trans-cleavage inhibition type” value [2] was “Competitive (10.6 ± 1.0)”.
